Tests used:
[1] = molecular target: T1, Bromodomain-containing protein 3 (Homo sapiens, UniProt Q15059); assay: Inhibition of BRD3 BD2 (unknown origin) after 30 mins by TR-FRET assay
[2] = Permeability of the compound by PAMPA; assay type: ADME; details: read-out: permeability
Homo sapiens [3] = organism: Homo sapiens; assay: Selectivity ratio of Kd for human partial length DNA-tagged BRPF1 to Kd for human partial length DNA-tagged BRD4 isoform long BD2
[4] = molecular target: Transcription intermediary factor 1-alpha (Homo sapiens, UniProt O15164); assay: Binding affinity to human partial length DNA-tagged TRIM24(PHD,Bromo.) expressed in bacteria by BROMOscan method
[5] = molecular target: Bromodomain-containing protein 4 (Homo sapiens, UniProt O60885, Y97A)
[6] = molecular target: T2, Bromodomain-containing protein 2 (Homo sapiens, UniProt P25440); assay: Selectivity ratio of Kd for human partial length DNA-tagged BRD2 isoform 1 BD1 to Kd for human partial length DNA-tagged BRD2 isoform 1 BD2
[7] = molecular target: Nucleosome-remodeling factor subunit BPTF (Homo sapiens, UniProt Q12830); assay: Binding affinity to human partial length DNA-tagged FALZ isoform1 expressed in bacteria by BROMOscan method
[8] = molecular target: T2, Bromodomain-containing protein 2; assay: Binding affinity to human partial length DNA-tagged BRD2 isoform 1 BD1 expressed in bacterial by BROMOscan method
Target sequence in this assay (P25440 whole entry, canonical isoform): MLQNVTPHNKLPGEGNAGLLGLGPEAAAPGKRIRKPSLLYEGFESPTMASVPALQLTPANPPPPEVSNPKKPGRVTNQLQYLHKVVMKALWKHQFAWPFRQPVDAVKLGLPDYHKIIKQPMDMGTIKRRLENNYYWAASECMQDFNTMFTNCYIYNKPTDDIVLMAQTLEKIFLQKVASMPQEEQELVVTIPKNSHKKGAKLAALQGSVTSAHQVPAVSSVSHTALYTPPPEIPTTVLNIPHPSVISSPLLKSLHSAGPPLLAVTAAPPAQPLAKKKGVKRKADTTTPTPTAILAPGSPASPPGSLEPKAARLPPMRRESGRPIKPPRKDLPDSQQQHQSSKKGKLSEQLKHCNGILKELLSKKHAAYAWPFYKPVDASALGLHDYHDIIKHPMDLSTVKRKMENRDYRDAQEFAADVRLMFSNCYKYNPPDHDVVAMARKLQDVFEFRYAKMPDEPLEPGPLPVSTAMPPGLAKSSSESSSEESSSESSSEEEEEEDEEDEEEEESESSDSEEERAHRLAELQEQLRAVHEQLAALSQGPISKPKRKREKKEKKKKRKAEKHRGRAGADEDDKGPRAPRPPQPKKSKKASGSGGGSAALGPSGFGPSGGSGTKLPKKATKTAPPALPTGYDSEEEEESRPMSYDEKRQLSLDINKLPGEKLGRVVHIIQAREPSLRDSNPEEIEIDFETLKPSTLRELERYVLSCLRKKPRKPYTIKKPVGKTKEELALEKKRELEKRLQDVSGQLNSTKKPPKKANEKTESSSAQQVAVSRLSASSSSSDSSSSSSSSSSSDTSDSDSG

[9] = molecular target: T3, Bromodomain testis-specific protein (Homo sapiens, UniProt Q58F21); assay: Binding affinity to human partial length DNA-tagged BRDT isoform b BD1 expressed in bacterial by BROMOscan method
[10] = molecular target: T2, Bromodomain-containing protein 2; assay: Inhibition of human BRD2 BD1 after 30 mins by TR-FRET assay
Target sequence in this assay (P25440 whole entry, canonical isoform): as above

Homo sapiens [11] = organism: Homo sapiens; assay: Selectivity ratio of IC50 for human BRD2 BD1 to IC50 for human BRD2 BD2
[12] = molecular target: T1, Bromodomain-containing protein 3; assay: Inhibition of BRD3 BD1 (unknown origin) after 30 mins by TR-FRET assay
Peregrin = molecular target: T4, Peregrin (Homo sapiens, UniProt P55201); assay: Displacement of Alexa 647 ligand from 6H-Flag-Tev-BRPF1 (622 to 738 residues) (unknown origin) expressed in Escherichia coli BL21 (DE3) cells after 30 mins by TR-FRET assay
T4 sequence (P55201 whole entry): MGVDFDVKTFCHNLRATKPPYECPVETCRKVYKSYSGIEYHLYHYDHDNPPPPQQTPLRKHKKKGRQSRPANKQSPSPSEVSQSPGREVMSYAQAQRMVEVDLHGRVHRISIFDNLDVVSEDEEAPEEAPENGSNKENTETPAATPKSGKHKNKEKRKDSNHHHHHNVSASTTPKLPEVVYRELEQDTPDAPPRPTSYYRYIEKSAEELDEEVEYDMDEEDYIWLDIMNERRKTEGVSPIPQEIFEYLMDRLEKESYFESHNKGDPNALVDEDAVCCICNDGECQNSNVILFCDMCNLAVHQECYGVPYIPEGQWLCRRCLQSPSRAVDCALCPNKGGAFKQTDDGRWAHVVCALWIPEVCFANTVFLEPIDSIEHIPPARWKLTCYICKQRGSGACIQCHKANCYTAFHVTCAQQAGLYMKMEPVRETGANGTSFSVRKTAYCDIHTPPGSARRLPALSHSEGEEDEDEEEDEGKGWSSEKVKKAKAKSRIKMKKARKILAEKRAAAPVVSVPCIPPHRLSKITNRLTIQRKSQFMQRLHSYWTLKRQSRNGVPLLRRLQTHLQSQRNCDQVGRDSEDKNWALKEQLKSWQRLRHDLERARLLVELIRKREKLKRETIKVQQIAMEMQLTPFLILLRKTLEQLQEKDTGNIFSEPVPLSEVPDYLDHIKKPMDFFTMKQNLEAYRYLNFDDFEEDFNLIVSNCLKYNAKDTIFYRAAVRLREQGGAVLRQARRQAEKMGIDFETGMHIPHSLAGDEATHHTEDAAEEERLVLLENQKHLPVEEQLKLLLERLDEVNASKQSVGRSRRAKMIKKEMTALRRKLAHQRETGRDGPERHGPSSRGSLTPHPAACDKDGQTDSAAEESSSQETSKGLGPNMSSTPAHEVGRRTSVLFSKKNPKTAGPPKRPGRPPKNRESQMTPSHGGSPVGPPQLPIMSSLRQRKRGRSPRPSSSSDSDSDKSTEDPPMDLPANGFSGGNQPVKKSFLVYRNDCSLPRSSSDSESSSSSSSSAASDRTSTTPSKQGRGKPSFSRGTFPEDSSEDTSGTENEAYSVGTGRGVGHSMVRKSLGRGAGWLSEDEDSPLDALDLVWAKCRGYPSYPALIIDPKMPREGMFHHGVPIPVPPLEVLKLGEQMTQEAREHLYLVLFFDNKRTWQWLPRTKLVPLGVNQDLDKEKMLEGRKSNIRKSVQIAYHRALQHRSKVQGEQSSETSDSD

[13] = molecular target: Bromodomain-containing protein 4 (Homo sapiens, UniProt O60885, Y390A)
[14] = molecular target: Bromodomain-containing protein 7 (Homo sapiens, UniProt Q9NPI1); assay: Binding affinity to human partial length DNA-tagged BRD7 expressed in mammalian expression system by BROMOscan method
[15] = molecular target: T3, Bromodomain testis-specific protein; assay: Selectivity ratio of Kd for human partial length DNA-tagged BRDT isoform b BD1 to Kd for human partial length DNA-tagged BRDT isoform b BD2
[16] = molecular target: SWI/SNF-related matrix-associated actin-dependent regulator of chromatin subfamily A member 2 (Homo sapiens, UniProt P51531); assay: Binding affinity to human partial length DNA-tagged SMARCA2 expressed in bacteria by BROMOscan method
PBMC = assay: cells; details: Homo sapiens, read-out: pIC50 (converted)
Description: Antiinflammatory activity in human PBMC assessed as inhibition of LPS-induced MCP1 release preincubated for 30 mins followed by LPS challenge measured after 24 hrs by immunoassay

[17] = molecular target: Transcription initiation factor TFIID subunit 1-like (Homo sapiens, UniProt Q8IZX4); assay: Binding affinity to human partial length DNA-tagged TAF1L BD2 expressed in bacteria by BROMOscan method
[18] = molecular target: Bromodomain-containing protein 8 (Homo sapiens, UniProt Q9H0E9); assay: Binding affinity to DNA-tagged BRD8 (unknown origin) by BROMOscan method
[19] = molecular target: E3 ubiquitin-protein ligase TRIM33 (Homo sapiens, UniProt Q9UPN9); assay: Binding affinity to human partial length DNA-tagged TRIM33(PHD,Bromo.) expressed in bacteria by BROMOscan method
[20] = molecular target: Bromodomain adjacent to zinc finger domain protein 2B (Homo sapiens, UniProt Q9UIF8); assay: Binding affinity to human partial length DNA-tagged BAZ2B expressed in bacterial by BROMOscan method
[21] = molecular target: Bromodomain and PHD finger-containing protein 3 (Homo sapiens, UniProt Q9ULD4); assay: Binding affinity to human partial length DNA-tagged BRPF3 expressed in bacteria by BROMOscan method
physchem = details: buffer, pH 7.4
Description: Chromatographic hydrophobicity index, log D of the compound at pH 7.4 by HPLC method

CREB-binding protein = CREB-binding protein (Homo sapiens, UniProt Q92793); assay: Binding affinity to human partial length DNA-tagged CREBBP expressed in bacteria by BROMOscan method

T1 sequence (Q15059 whole entry): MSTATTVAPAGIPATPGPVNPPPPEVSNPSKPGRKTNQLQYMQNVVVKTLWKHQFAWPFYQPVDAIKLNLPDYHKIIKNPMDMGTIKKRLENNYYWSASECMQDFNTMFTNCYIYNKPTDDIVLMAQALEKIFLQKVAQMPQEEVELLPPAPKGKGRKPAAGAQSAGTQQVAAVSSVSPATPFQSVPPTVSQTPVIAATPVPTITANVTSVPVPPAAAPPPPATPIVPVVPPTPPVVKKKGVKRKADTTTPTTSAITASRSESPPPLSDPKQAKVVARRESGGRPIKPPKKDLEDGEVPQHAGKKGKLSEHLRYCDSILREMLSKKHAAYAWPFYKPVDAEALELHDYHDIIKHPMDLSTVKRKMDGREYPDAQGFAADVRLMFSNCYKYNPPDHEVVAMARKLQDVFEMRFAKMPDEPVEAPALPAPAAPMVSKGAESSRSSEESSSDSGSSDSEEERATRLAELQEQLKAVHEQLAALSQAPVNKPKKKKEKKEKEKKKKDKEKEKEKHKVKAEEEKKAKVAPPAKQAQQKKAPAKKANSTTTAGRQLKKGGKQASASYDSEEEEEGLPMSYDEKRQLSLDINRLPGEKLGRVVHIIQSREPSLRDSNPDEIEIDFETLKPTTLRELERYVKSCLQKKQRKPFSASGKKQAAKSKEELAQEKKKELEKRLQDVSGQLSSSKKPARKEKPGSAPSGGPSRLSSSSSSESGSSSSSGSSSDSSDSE
Transcription initiation factor TFIID subunit 1-like, sequence (Q8IZX4 whole entry): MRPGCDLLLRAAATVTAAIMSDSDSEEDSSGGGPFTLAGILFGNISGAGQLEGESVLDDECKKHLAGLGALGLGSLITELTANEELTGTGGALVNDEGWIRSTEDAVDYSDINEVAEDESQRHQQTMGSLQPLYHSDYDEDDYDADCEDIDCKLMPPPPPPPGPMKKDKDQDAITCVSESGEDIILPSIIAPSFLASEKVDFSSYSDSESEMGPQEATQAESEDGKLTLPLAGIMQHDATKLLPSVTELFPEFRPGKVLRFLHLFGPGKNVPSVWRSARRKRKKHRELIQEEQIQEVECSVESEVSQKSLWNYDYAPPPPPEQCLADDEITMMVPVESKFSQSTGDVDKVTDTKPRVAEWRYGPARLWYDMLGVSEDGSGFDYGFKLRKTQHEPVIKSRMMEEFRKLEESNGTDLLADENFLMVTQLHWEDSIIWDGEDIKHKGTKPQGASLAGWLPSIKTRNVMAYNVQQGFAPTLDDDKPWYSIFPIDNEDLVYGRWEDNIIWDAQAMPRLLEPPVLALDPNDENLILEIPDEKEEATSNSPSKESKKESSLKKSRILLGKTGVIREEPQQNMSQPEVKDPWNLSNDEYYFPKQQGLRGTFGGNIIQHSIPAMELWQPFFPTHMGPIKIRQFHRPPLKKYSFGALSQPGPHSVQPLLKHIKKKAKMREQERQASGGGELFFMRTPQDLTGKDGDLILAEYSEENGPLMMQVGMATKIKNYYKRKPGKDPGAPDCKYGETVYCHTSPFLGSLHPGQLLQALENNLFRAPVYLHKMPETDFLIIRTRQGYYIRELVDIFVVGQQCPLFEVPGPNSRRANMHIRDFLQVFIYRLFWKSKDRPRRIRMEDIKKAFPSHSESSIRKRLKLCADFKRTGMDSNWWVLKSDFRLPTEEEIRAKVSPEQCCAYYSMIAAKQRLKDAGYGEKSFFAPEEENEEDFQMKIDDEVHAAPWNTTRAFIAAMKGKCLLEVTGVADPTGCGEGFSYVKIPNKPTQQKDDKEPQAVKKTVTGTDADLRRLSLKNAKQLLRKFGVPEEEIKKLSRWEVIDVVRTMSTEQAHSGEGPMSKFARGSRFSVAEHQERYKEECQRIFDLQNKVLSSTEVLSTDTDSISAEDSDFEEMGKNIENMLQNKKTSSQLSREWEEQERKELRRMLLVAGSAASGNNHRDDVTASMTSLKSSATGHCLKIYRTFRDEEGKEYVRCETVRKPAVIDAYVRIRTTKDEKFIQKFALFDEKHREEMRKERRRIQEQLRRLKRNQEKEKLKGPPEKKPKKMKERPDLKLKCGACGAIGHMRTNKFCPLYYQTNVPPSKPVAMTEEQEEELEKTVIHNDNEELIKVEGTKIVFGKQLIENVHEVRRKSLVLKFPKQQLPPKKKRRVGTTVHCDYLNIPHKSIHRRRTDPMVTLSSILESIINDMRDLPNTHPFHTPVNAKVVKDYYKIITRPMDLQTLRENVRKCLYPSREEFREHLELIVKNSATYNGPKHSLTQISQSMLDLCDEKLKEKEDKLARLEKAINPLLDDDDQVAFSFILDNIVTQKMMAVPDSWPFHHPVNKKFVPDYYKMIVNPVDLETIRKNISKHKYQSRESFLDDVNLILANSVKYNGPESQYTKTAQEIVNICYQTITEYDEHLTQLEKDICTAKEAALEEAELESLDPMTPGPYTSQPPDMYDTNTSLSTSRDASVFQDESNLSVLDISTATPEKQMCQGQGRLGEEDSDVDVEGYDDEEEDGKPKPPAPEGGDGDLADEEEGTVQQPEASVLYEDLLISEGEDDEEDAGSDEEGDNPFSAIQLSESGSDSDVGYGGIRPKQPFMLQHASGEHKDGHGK
Bromodomain and PHD finger-containing protein 3, sequence (Q9ULD4 whole entry): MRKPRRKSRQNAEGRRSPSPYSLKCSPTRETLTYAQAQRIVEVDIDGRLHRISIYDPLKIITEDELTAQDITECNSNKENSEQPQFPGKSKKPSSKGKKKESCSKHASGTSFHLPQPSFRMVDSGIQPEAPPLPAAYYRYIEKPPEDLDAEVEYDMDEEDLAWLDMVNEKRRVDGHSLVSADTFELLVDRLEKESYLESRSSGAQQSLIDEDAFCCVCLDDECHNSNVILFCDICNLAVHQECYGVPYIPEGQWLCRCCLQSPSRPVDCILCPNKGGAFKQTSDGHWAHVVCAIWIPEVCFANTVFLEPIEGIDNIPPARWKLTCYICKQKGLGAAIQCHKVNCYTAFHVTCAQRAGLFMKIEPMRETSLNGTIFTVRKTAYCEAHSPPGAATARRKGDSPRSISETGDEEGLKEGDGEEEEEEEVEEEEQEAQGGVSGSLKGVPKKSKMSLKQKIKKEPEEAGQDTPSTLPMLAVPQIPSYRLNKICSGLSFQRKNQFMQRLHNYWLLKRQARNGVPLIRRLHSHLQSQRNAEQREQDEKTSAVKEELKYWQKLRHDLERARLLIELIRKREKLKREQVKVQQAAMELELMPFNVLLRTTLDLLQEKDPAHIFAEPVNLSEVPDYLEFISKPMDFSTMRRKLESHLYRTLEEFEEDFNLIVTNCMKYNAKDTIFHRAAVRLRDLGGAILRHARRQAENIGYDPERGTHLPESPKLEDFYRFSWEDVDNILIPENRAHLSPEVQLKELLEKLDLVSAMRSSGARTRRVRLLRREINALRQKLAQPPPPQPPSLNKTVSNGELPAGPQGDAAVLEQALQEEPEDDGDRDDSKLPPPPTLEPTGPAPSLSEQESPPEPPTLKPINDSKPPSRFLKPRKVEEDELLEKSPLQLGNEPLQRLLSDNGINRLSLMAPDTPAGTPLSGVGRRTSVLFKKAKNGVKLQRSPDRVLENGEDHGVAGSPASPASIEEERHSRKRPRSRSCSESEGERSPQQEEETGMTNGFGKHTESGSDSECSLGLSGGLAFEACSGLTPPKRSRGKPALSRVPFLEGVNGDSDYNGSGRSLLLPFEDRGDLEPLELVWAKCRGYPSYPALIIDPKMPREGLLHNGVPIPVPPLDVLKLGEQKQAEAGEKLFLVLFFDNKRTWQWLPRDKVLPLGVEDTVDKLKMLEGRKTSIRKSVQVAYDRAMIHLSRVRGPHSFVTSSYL

For `CC(=O)N1c2ccc(C3=CCNCC3)cc2N(Cc2ccccc2CO)C[C@@H]1C1CC1`, the IC50 [1] was 50.1 nM, the Papp [2] was 11 ×10⁻⁶ cm/s and the Selectivity ratio (Homo sapiens [3]) was 372. For the same compound, the Kd [4] was > 30200 nM, the IC50 [5] was 63.1 nM and the Selectivity ratio [6] was 41. The Kd [7] was > 30200 nM, the Kd [8] was 1320 nM and the Kd [9] was 1860 nM. The IC50 [10] was 2510 nM, the Ratio IC50 (Homo sapiens [11]) was 8 and the IC50 [12] was 1260 nM. For the same compound, the IC50 (Peregrin) was 20000 nM, the IC50 [13] was 3160 nM and the Kd [14] was > 30200 nM. For the same compound, the Selectivity ratio [15] was 91, the Kd [16] was > 30200 nM and the IC50 (PBMC) was 39.8 nM. The Kd [17] was > 30200 nM, the Kd [18] was > 30200 nM and the Kd [19] was > 30200 nM. For the same compound, the Kd [20] was > 30200 nM, the Kd [21] was > 30200 nM and the chromatographic logD (physchem) was 2.3. The Kd (CREB-binding protein) was > 30200 nM.
